Laboratory results as given in patent US10131652B2, “Pyrimidinyloxy benzene derivatives as herbicides” (E. I. DU PONT DE NEMOURS AND COMPANY, priority 2014, dated 2018).
Like-named read-outs stand apart in the source and are kept apart here.

Columns and labels:
Type in all cases: in vivo
[1] = test system: galium (catchweed bedstraw, Galium aparine); assay: Test D pre-/postemergence plant response; details: Galium; for pest or weed control at 31 g/ha: 31 g ai/ha; for pest or weed control at 62 g/ha: 62 g ai/ha; for pest or weed control at 125 g/ha: 125 g ai/ha; for pest or weed control at 250 g/ha: 250 g ai/ha
Outline: (§1)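 Greenhouse herbicidal response, both pre- and postemergence applications, with solvent/surfactant formulation. Postemergence plants were at 1- to 4-leaf stage. Visual scores 0–100 relative to controls, taken 13 to 15 days later.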

[2] = test system: Italian ryegrass (Lolium multiflorum); assay: Test D pre-/postemergence plant response; details: Lolium multiflorum; for pest or weed control at 31 g/ha: 31 g ai/ha; for pest or weed control at 62 g/ha: 62 g ai/ha; for pest or weed control at 125 g/ha: 125 g ai/ha; for pest or weed control at 250 g/ha: 250 g ai/ha
Outline: as §1

[3] = test system: oilseed rape (Brassica napus); assay: Test D pre-/postemergence plant response; details: Brassica napus; for plant injury at 31 g/ha: 31 g ai/ha; for plant injury at 62 g/ha: 62 g ai/ha; for plant injury at 125 g/ha: 125 g ai/ha; for plant injury at 250 g/ha: 250 g ai/ha
Outline: as §1

[4] = test system: winter wheat (Triticum aestivum); assay: Test D pre-/postemergence plant response; details: Triticum aestivum; for plant injury at 31 g/ha: 31 g ai/ha; for plant injury at 62 g/ha: 62 g ai/ha; for plant injury at 125 g/ha: 125 g ai/ha; for plant injury at 250 g/ha: 250 g ai/ha
Outline: as §1

[5] = test system: velvetleaf (Abutilon theophrasti); assay: Test D pre-/postemergence plant response; details: Abutilon theophrasti; for pest or weed control at 31 g/ha: 31 g ai/ha; for pest or weed control at 62 g/ha: 62 g ai/ha; for pest or weed control at 125 g/ha: 125 g ai/ha; for pest or weed control at 250 g/ha: 250 g ai/ha
Outline: as §1

[6] = test system: corn (Zea mays); assay: Test D pre-/postemergence plant response; details: Zea mays; for Corn plant response rating (crop injury, 0 = no effect, 100 = complete kill) at 62 g/ha: 62 g ai/ha
Outline: as §1

[7] = test system: lambsquarters (Chenopodium album); assay: Test D pre-/postemergence plant response; details: Chenopodium album; for pest or weed control at 31 g/ha: 31 g ai/ha; for pest or weed control at 62 g/ha: 62 g ai/ha; for pest or weed control at 125 g/ha: 125 g ai/ha; for pest or weed control at 250 g/ha: 250 g ai/ha
Outline: as §1

[8] = test system: rice (Oryza sativa); assay: Test C flooded paddy test plant response; details: Oryza sativa; Flood, 250 g ai/ha; scale of 0 to 100 where 0 is no effect and 100 is complete control; 13 to 15 days; read-out: Rice plant response rating
Outline: (§2)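 Water-applied treatment: compounds go directly into floodwater standing 3 cm over the soil of pots holding 2-leaf-stage plants. Depth is kept constant; plants stay in a greenhouse 13 to 15 days before visual comparison with controls on a 0–100 scale.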

[9] = test system: barnyardgrass (Echinochloa crus-galli); assay: Test C flooded paddy test plant response; details: Echinochloa crus-galli; Flood, 250 g ai/ha; scale of 0 to 100 where 0 is no effect and 100 is complete control; 13 to 15 days; read-out: Barnyardgrass plant response rating
Outline: as §2

[10] = test system: ducksalad (Heteranthera limosa); assay: Test C flooded paddy test plant response; details: Heteranthera limosa; Flood, 250 g ai/ha; scale of 0 to 100 where 0 is no effect and 100 is complete control; 13 to 15 days; read-out: Ducksalad plant response rating
Outline: as §2

[11] = test system: small-flower umbrella sedge (Cyperus difformis); assay: Test C flooded paddy test plant response; details: Cyperus difformis; Flood, 250 g ai/ha; scale of 0 to 100 where 0 is no effect and 100 is complete control; 13 to 15 days; read-out: Sedge, Umbrella plant response rating
Outline: as §2

[12] = post-emergence, Postemergence, scale 0 to 100, 0 no effect, 100 complete control, read-out: Plant response rating, Galium
[13] = pre-emergence, Preemergence, read-out: Plant response rating (scale 0 to 100), Galium
[14] = pre-emergence, Preemergence, scale 0 to 100 (0 no effect, 100 complete control), read-out: Plant response rating, Galium
[15] = post-emergence, Postemergence, scale 0 to 100, 0 no effect, 100 complete control, read-out: Plant response rating, Ryegrass, Italian
[16] = pre-emergence, Preemergence, read-out: Plant response rating (scale 0 to 100), Ryegrass, Italian
[17] = pre-emergence, Preemergence, scale 0 to 100 (0 no effect, 100 complete control), read-out: Plant response rating, Ryegrass, Italian
[18] = post-emergence, Postemergence, scale 0 to 100, 0 no effect, 100 complete control, read-out: Plant response rating, Oilseed Rape
[19] = pre-emergence, Preemergence, read-out: Plant response rating (scale 0 to 100), Oilseed Rape
[20] = pre-emergence, Preemergence, scale 0 to 100 (0 no effect, 100 complete control), read-out: Plant response rating, Oilseed Rape
[21] = post-emergence, Postemergence, scale 0 to 100, 0 no effect, 100 complete control, read-out: Plant response rating, Wheat
[22] = pre-emergence, Preemergence, read-out: Plant response rating (scale 0 to 100), Wheat
[23] = pre-emergence, Preemergence, scale 0 to 100 (0 no effect, 100 complete control), read-out: Plant response rating, Wheat
[24] = post-emergence, Postemergence, scale 0 to 100, 0 no effect, 100 complete control, read-out: Plant response rating, Velvetleaf
[25] = pre-emergence, Preemergence, read-out: Plant response rating (scale 0 to 100), Velvetleaf
[26] = pre-emergence, Preemergence, scale 0 to 100 (0 no effect, 100 complete control), read-out: Plant response rating, Velvetleaf
[27] = post-emergence, Postemergence, scale 0 to 100, 0 no effect, 100 complete control, read-out: Plant response rating, Lambsquarters
[28] = pre-emergence, Preemergence, read-out: Plant response rating (scale 0 to 100), Lambsquarters
[29] = pre-emergence, Preemergence, scale 0 to 100 (0 no effect, 100 complete control), read-out: Plant response rating, Lambsquarters

FC(F)c1cc(-c2ccccc2Oc2ncc(Br)cn2)no1 [Compound 62, 5-bromo-2-[2-[5-(difluoromethyl)-3-isoxazolyl]phenoxy]pyrimidine]
pest or weed control at 31 g/ha ([1]; post-emergence, Postemergence, scale 0 to 100 (0 no effect, 100 complete control), read-out: Galium plant response rating): 85% | pest or weed control at 62 g/ha [1, 12]: 85% | pest or weed control at 125 g/ha [1, 12]: 100% | pest or weed control at 250 g/ha [1, 12]: 100% | pest or weed control at 125 g/ha [1, 13]: 100% | pest or weed control at 250 g/ha [1, 13]: 100% | pest or weed control at 31 g/ha [1, 14]: 100% | pest or weed control at 62 g/ha [1, 14]: 100% | pest or weed control at 31 g/ha ([2]; post-emergence, Postemergence, scale 0 to 100 (0 no effect, 100 complete control), read-out: Ryegrass, Italian plant response rating): 5% | pest or weed control at 62 g/ha [2, 15]: 5% | pest or weed control at 125 g/ha [2, 15]: 30% | pest or weed control at 250 g/ha [2, 15]: 40% | pest or weed control at 125 g/ha [2, 16]: 90% | pest or weed control at 250 g/ha [2, 16]: 95% | pest or weed control at 31 g/ha [2, 17]: 40% | pest or weed control at 62 g/ha [2, 17]: 60% | plant injury at 31 g/ha ([3]; post-emergence, Postemergence, scale 0 to 100 (0 no effect, 100 complete control), read-out: Oilseed Rape plant response rating): 80% | plant injury at 62 g/ha [3, 18]: 90% | plant injury at 125 g/ha [3, 18]: 98% | plant injury at 250 g/ha [3, 18]: 100% | plant injury at 125 g/ha [3, 19]: 100% | plant injury at 250 g/ha [3, 19]: 100% | plant injury at 31 g/ha [3, 20]: 100% | plant injury at 62 g/ha [3, 20]: 98% | plant injury at 31 g/ha ([4]; post-emergence, Postemergence, scale 0 to 100 (0 no effect, 100 complete control), read-out: Wheat plant response rating): 30% | plant injury at 62 g/ha [4, 21]: 20% | plant injury at 125 g/ha [4, 21]: 10% | plant injury at 250 g/ha [4, 21]: 40% | plant injury at 125 g/ha [4, 22]: 40% | plant injury at 250 g/ha [4, 22]: 50% | plant injury at 31 g/ha [4, 23]: 0% | plant injury at 62 g/ha [4, 23]: 10% | pest or weed control at 31 g/ha ([5]; post-emergence, Postemergence, scale 0 to 100 (0 no effect, 100 complete control), read-out: Velvetleaf plant response rating): 60% | pest or weed control at 62 g/ha [5, 24]: 70% | pest or weed control at 125 g/ha [5, 24]: 75% | pest or weed control at 250 g/ha [5, 24]: 85% | pest or weed control at 125 g/ha [5, 25]: 100% | pest or weed control at 250 g/ha [5, 25]: 100% | pest or weed control at 31 g/ha [5, 26]: 90% | pest or weed control at 62 g/ha [5, 26]: 100% | plant injury at 31 g/ha ([6]; post-emergence, Postemergence, 31 g ai/ha, scale 0 to 100 (0 no effect, 100 complete control), read-out: Corn plant response rating): 10% | Corn plant response rating (crop injury, 0 = no effect, 100 = complete kill) at 62 g/ha ([6]; post-emergence, Postemergence, scale 0 to 100, 0 no effect, 100 complete control): 10% | Corn plant response rating (crop injury, 0 = no effect, 100 = complete kill) at 125 g/ha ([6]; post-emergence, Postemergence, 125 g ai/ha, scale 0 to 100, 0 no effect, 100 complete control): 15% | Corn plant response rating (crop injury, 0 = no effect, 100 = complete kill) at 250 g/ha ([6]; post-emergence, Postemergence, 250 g ai/ha, scale 0 to 100, 0 no effect, 100 complete control): 10% | plant injury at 125 g/ha ([6]; pre-emergence, Preemergence, 125 g ai/ha, read-out: Plant response rating (scale 0 to 100), Corn): 60% | plant injury at 250 g/ha ([6]; pre-emergence, Preemergence, 250 g ai/ha, read-out: Plant response rating (scale 0 to 100), Corn): 70% | Corn plant response rating (crop injury, 0 = no effect, 100 = complete kill) at 31 g/ha ([6]; pre-emergence, Preemergence, 31 g ai/ha, scale 0 to 100 (0 no effect, 100 complete control)): 35% | Corn plant response rating (crop injury, 0 = no effect, 100 = complete kill) at 62 g/ha ([6]; pre-emergence, Preemergence, scale 0 to 100 (0 no effect, 100 complete control)): 30% | pest or weed control at 31 g/ha ([7]; post-emergence, Postemergence, scale 0 to 100 (0 no effect, 100 complete control), read-out: Lambsquarters plant response rating): 98% | pest or weed control at 62 g/ha [7, 27]: 98% | pest or weed control at 125 g/ha [7, 27]: 100% | pest or weed control at 250 g/ha [7, 27]: 100% | pest or weed control at 125 g/ha [7, 28]: 98% | pest or weed control at 250 g/ha [7, 28]: 100% | pest or weed control at 31 g/ha [7, 29]: 100% | pest or weed control at 62 g/ha [7, 29]: 95% | plant injury at 250 g/ha [8]: 40% | pest or weed control at 250 g/ha [9]: 35% | pest or weed control at 250 g/ha [10]: 100% | pest or weed control at 250 g/ha [11]: 90%
